Measurements published in PMC8350397, “GSK137, a potent small-molecule BCL6 inhibitor with in vivo activity, suppresses antibody responses in mice” (The Journal of Biological Chemistry, 2021).

Key:
[1] = tested on: splenic GC B cells and Tfh cells; assay: TNP-KLH immunization model, flow cytometry of spleen cells; format: in vivo, mouse; conditions: for reduction of mean absolute number of Tfh cells per spleen vs vehicle: day 12, not statistically significant
Method: (§1) Male CD1 mice (30–40 g, 8–9 weeks of age) were randomized into study treatment groups, housed individually and allowed to acclimatize under standard laboratory conditions for a minimum of 5 days prior to commencement of the study. Mice received food and water ad libitum. The experiment was performed in a certified dedicated in vivo experimental laboratory at the GlaxoSmithKline Medicines Research Centre, Stevenage, United Kingdom. The four treatment groups were (1) unimmunized and untreated (naive group) (n = 4); (2) intraperitoneal vehicle (n = 13), (3) GSK137 15 mg/kg (n = 14), and (4) GSK137 30 mg/kg (n = 14). Groups (2) to (4) were given intraperitoneal immunization with TNP–KLH (100 μg) on day 0, vehicle was 1% methylcellulose in water + 0.1% sodium lauryl sulphate, and compound or vehicle was given to groups (2) to (4) by oral gavage three times per day from day −1 to day +12. Blood samples were collected by tail vein for measurement of compound, IgM and IgG levels on days 0, 5, 8, and 12 ahead of immunization/first daily dose. On day 8, blood samples were also taken (n = 7) at 0.5, 1.5, 3, 5, or 7 h after first daily dose. On day 12, spleens were collected, weighed, and placed into Dulbecco's modified Eagle's medium on wet ice for analysis by flow cytometry.
For cell measurements, spleens were passed through a […] cell strainer, red blood cells were lysed, and cells were resuspended in medium, counted, and 1 × 10^6 cells plated for staining. Cells were washed in PBS and resuspended in 100 μl viability dye (diluted 1:1000 in PBS) for 15 min at room temperature. About 100 μl cell-staining buffer (CSB; BioLegend; catalog no. 420201) was added to each well before centrifugation and removal of supernatants, and cell pellets were resuspended in 100 μl relevant cocktail of antibodies (Table S2) for surface staining and incubated for 30 min at 4 °C. Cells were then washed in CSB and resuspended in 200 μl of FoxP3 fixation and permeabilization buffer for 30 min for staining of intracellular markers for 30 min. Cells were washed in PermWash buffer and resuspended in CSB (250 μl) before acquisition of a Cytek Aurora spectral cytometer (Cytek). Gating was carried out as shown (Figs. S1 and S2), and data were analyzed on FlowJo 10 (Becton Dickinson). Cell frequency was used to calculate an absolute cell number per tissue from the total live cell counts from whole homogenized spleen. Data were normalized against background GC and Tfh quantified in naive mice prior to performing percent inhibition calculations.
Single cell suspensions were generated by passing spleens through a 40 µM cell strainer into medium (RPMI 1640 supplemented with 2% fetal calf serum, 1% penicillin / streptomycin, 1% L-glutamine). Following centrifugation (400 g, 5 minutes, 4 °C) and removal of supernatants, red blood cells were lysed by incubation in 1 mL lysis buffer for 1 minute at room temperature. Cells were resuspended in medium, counted on a Nucleocounter NC3000 (Chemometec, Lillerød, Denmark) and 1x10^6 cells plated into 96-well polypropylene plates for staining. Cells were washed in 200 µL PBS and resuspended in 100 µL viability dye (diluted 1:1000 in PBS) for 15 minutes at room temperature. 100 µL cell staining buffer (CSB) (BioLegend, San Diego, CA, USA, #420201) was added to each well before centrifugation and removal of supernatants. Cell pellets were resuspended in 100 µL relevant cocktail of antibodies (see Tables S2 and S3) for surface staining and incubated for 30 minutes at 4 °C. Cells were washed in CSB and resuspended in 200 uL of FoxP3 fixation and permeabilisation buffer for 30 minutes in the dark at room temperature, washed and stained for intracellular markers for 30 minutes at room temperature. Cells were washed in Permwash and resuspended in CSB (250 µL) before acquisition on a Cytek Aurora spectral cytometer (Cytek, Fremont, CA, USA). […]

[2] = Pharmacokinetics in blood during the immunization study; format: in vivo; conditions: male, CD1, mouse, whole blood, po; for AUC: daily steady state, from simulated profiles; for Tmax: day 8; for Cmax: day 8, blood
Method: as §1
Mouse blood/water (50/50) samples were analyzed for GSK137 using an analytical method based on protein precipitation, followed by HPLC/MS–MS analysis. The lower limit of quantification for GSK137 was 1.2 ng/ml with a higher limit of quantification of 3000 ng/ml. A two-compartment PK model was used to describe the measured composite mean steady-state oral concentration–time profiles. A three times per day dose simulation was performed using the two-compartment PK model parameters generated to simulate the repeat dose concentration–time profile. All modelings were conducted in Phoenix64 (WinNonLin) version 8.1 (Pharsight).

Cc1ncccc1[C@H]1C[C@@H](c2cccc3nc(N)ccc23)Nc2c(F)cnn21 [GSK137, 5-((5S,7R)-3-Fluoro-7-(2-methylpyridin-3-yl)-4,5,6,7-tetrahydropyrazolo[1,5-a]pyrimidin-5-yl)quinolin-2-amine]
plasmablasts and plasma cells as a percentage of total viable cells vs vehicle ([1]; 15 mg/kg or 30 mg/kg, Fig. S6B): no statistically significant reductions
reduction of mean number of GC B cells per spleen vs vehicle ([1]; 15 mg/kg, day 12): 53%
reduction of mean absolute number of Tfh cells per spleen vs vehicle ([1]; 15 mg/kg): 39%
reduction of frequency of GC B cells within total splenic B cells vs vehicle ([1]; 15 mg/kg, day 12, p = 0.0058): 61%
reduction of mean frequency of Tfh cells as fraction of splenic CD4+ T cells vs vehicle ([1]; 15 mg/kg, day 12, p = 0.014): 48%
reduction of mean absolute number of Tfh cells per spleen vs vehicle ([1]; 30 mg/kg): 34%
reduction of frequency of GC B cells within total splenic B cells vs vehicle ([1]; 30 mg/kg, day 12, p = 0.0031): 72%
reduction of mean frequency of Tfh cells as fraction of splenic CD4+ T cells vs vehicle ([1]; 30 mg/kg, day 12, p = 0.0041): 50%
reduction of mean number of GC B cells per spleen vs vehicle ([1]; 30 mg/kg, day 12, p = 0.04): 67%
number of plasmablasts and plasma cells (CD19+/intCD138+) in spleen vs vehicle ([1]; 15 and 30 mg/kg, after immunization): no statistically significant difference
macrophage, dendritic cell and natural killer cell markers (CD11c, CD11b, CD161) vs vehicle ([1]; data not shown): no difference
mean total CD4+ T-cell numbers per spleen ([1]; significant at 30 mg/kg (p = 0.032), not at 15 mg/kg): return mean CD4^+ T-cell numbers to levels observed in naive mice
AUC ([2]; 15 mg/kg orally TID): 3400 ng·h/mL
Tmax ([2]; 15 mg/kg orally TID): 30 min
Cmax ([2]; 15 mg/kg orally TID): 471 ± 226 ng/mL
AUC ([2]; 30 mg/kg orally TID): 6810 ng·h/mL
Tmax ([2]; 30 mg/kg orally TID): 30 min
Cmax ([2]; 30 mg/kg orally TID): 1340 ± 141 ng/mL
